Results as given in patent US11964984B2, “TXNIP-TRX complex inhibitors and methods of using the same” (CITY OF HOPE, priority 2020, dated 2024).

Legend:
human islets [1] = experiment: Human islet viability by FDA/PI staining under high glucose plus cytokines; format: cell-based; details: HG/cytokine cocktail, 24 hr, 5 uM compound
Method: FIG. 19. Lead compounds enhance viability in human islets and protect them from apoptosis. 200 IEQ human islets (Hu 1183) were cultured in PIM(R)® medium containing NG (5.8 mM glucose) or HG (25 mM glucose), and mixture of TNFα (20 ng/ml), IL1β (20 ng/ml), and IFNγ (200 ng/ml) for 24 hours with or without C30 or C38. Islets were collected, washed with PBS once and stained with FDA and PI for 5 minutes and visualized with a Keyence All-in-One Fluorescence Microscope (BZ-X800E).
Lead compounds increase viability of human islets. […] Fluorescein diacetate/propidium iodide (FDA/PI) staining was employed to assess human islet viability.

human islets [2] = experiment: BCL2/BAX ratio (apoptosis marker) in human islets under high glucose plus cytokines; format: cell-based; details: 25 mM glucose + TNFα, IL1β, IFNγ, 40 hours
Method: FIGS. 18A-18B. C30 and C38 compounds protect cells from apoptosis in human islets. 100 IEQ human islets (Hu 1178) were cultured in PIM(R)© containing NG (5.8 mM glucose) or HG (25 mM glucose), and TNFα (20 ng/ml), IL1β (20 ng/ml), IFNγ (200 ng/ml) for 40 hours with or without lead compounds. Total RNA was prepared and RT PCR performed. FIG. 18A: BCL2/BAX ratios are the mean±SEM from triplicates. Statistical analysis was performed for each column vs. HG, 3 cytokines using one-way ANOVA: *p<0.002. FIG. 18B: TXNIP relative mRNA levels. Data shown are the mean±SEM from triplicates. Statistical analysis was performed for each column vs. HG, 3 cytokines using one-way ANOVA: **p<0.0001.
In T1D, β-cell death involves necrosis and apoptosis. BCL2 limits BAX/BAK oligomerization, to impede the release of several apoptogenic molecules from mitochondria. Also, BCL2 binds to and inactivates BAX and other pro-apoptotic proteins, thereby inhibiting apoptosis. BAX and BAK disrupt the integrity of the mitochondrial outer membrane to promote apoptotic cell death. As such, the BCL2/BAX ratio is used as a marker of cell susceptibility to apoptosis. High levels of this ratio can serve as an indicator of the resistance of human cells to apoptosis. […]

TXNIP mRNA [3] = experiment: TXNIP mRNA expression in murine RAW macrophages (RT-PCR); format: cell-based, mouse; details: RAW264.7 cells, 25 mM glucose, 72 hours
Method: (§1) FIGS. 3A-3B. FIG. 3A: C30 and C38 inhibited TXNIP mRNA expression in murine RAW macrophages. RAW cells were cultured under 25 mM glucose with various concentration of C30 and C38 as indicated for 72 hours. Total RNA was prepared. RT-PCR was performed and data shown are the mean±SEM from triplicates. Statistical analysis was performed for each column vs. high glucose (HG) DMSO using one-way ANOVA: *p<0.0001. FIG. 3B: Treatment with C30 and C38 decreased TNF-α mRNA expression in murine RAW macrophages. RAW cells were cultured under 25 mM glucose with various concentration of C30 and C38 as indicated for 72 hours. Total RNA was prepared. RT-PCR was performed and data shown are the mean±SEM from triplicates. Statistical analysis was performed for each column vs. HG DMSO using one-way ANOVA: *p<0.0001.
(§2) Treatment of murine RAW macrophages with lead compounds C30 and C38 decreased TXNIP and TNF-α. We have also tested the effects of the lead compound in murine RAW264.7 (RAW) macrophages. As in human THP1 cells, C30 and C38 inhibited TXNIP and TNF-α mRNA expression in mouse RAW cells (FIGS. 3A-3B) showing they are also effective in mouse cells. […]
(§3) RNA extraction and quantitative RT-PCR. […] Diluted cDNA was quantified using real-time PCR performed with Power SYBR Green qPCR MasterMix (Applied Biosystem) and 7500 real-time PCR system (Applied Biosystems). […]

TXNIP mRNA [4] = experiment: TXNIP expression in murine blood after oral dosing (RT-PCR); format: in vivo, C57BL/6 mice; details: 90 mg/kg oral gavage daily for five days, 96 hours after last dose
Method: FIG. 16. Compounds C30 and C38 reduce TXNIP expression in murine blood. Twelve male C57BL/6 mice were divided into three groups (vehicle, C30 and C38). They received 90 mg/kg of the indicated compounds via oral gavage daily for five days. Animals were humanely euthanized 96 hours after administration of the last drug dose. Blood samples were collected for total RNA extraction. RT-PCR was performed in triplicate and data shown are the mean±SEM. Statistical analysis was performed using one-way ANOVA: *p<0.001.
The effects of compounds C30 and C38 at single high dose of 90 mg/kg. Twelve male mice were divided into three groups: 1) Control group (4 mice), 2) compound C30 (4 mice) and 3) compound C38 (4 mice). By oral gavage, animals were given 90 mg/kg of agent daily for 5 consecutive days (vehicle: 30% Solutol in saline). Mice were weighed every day during the treatment period. They were humanely euthanized 96 hours after the last dose. Tissues including the pancreas, liver and kidneys were collected (snap frozen in liquid nitrogen) for RNA extraction. […] Those given compound C30 lost ˜5% of body weight (FIG. 15).
Expression of TXNIP in vivo in treated mice.

TNF-α mRNA = TNF-α mRNA expression in murine RAW macrophages (RT-PCR); format: cell-based, mouse; details: RAW264.7 cells, 25 mM glucose, 72 hours
Method: as §1, §2, §3

COc1cc(N2CC[C@@H](c3ccc4ccccc4c3)[C@H](O)C2)nc(N)n1 [Compound C30]
human islet viability (FDA/PI staining) (human islets [1]): protected human islets from death
BCL2/BAX ratio (human islets [2]): significantly increased BCL2/BAX ratios
TXNIP mRNA expression (TXNIP mRNA [3]): inhibited
RNA expression level of TXNIP in blood (TXNIP mRNA [4]): reduced
TNF-α mRNA expression (TNF-α mRNA): inhibited

c1ccc(CCNc2ncnc3c2oc2ccccc23)cc1 [Compound C38]
human islet viability (FDA/PI staining) (human islets [1]): protected human islets from death
BCL2/BAX ratio (human islets [2]): significantly increased BCL2/BAX ratios
TXNIP mRNA expression (TXNIP mRNA [3]): inhibited
RNA expression level of TXNIP in blood (TXNIP mRNA [4]): reduced
TNF-α mRNA expression (TNF-α mRNA): inhibited
